Test results: US6576595B1, “Xanthone derivatives, processes for their preparation and their use for controlling harmful fungi, and compositions comprising these derivatives” (BASF Aktiengesellschaft, priority 2001, dated 2003)

What was measured:
[1] = test system: mildew of wheat (Blumeria graminis forma specialis tritici); test: activity against powdery mildew of wheat (protective spray test on potted wheat seedlings); assay type: in vivo; details: wheat seedlings cultivar Kanzler, sprayed 24 h before inoculation, assessed visually after 7 days, untreated plants 90% infected
Protocol: The active compounds were prepared separately or jointly as a 10% strength emulsion in a mixture of 70% by weight of cyclohexanone, 20% by weight of Nekanil® LN (Lutensol® AP6, wetting agent having emulsifying and dispersing action based on ethoxylated alkylphenols) and 10% by weight of Wettol® EM (nonionic emulsifier based on ethoxylated castor oil) and diluted with water to the desired concentration.
Use example—activity against powdery mildew of wheat
Leaves of potted wheat seedlings of the cultivar “Kanzler” were sprayed to runoff point with an aqueous preparation of active compound which had been prepared from a stock solution of 10% of active compound, 63% of cyclohexanone and 27% of emulsifier. 24 hours after the spray coating had dried on, the leaves were dusted with spores of mildew of wheat (Blumeria graminis forma specialis tritici). The test plants were then placed in a greenhouse at 20-24° C. and 60 to 90% relative atmospheric humidity.
After 7 days, the extent of the mildew development was determined visually in % infection of the entire leaf area.

melting point | Structure (SMILES) | extent of the mildew development in % infection of the entire leaf area ([1]; 4 ppm active compound) | extent of the mildew development in % infection of the entire leaf area ([1]; 16 ppm active compound)
158 °C | COc1cc(C)c2c(=O)c3c(OC)cccc3oc2c1OC |  | 
162 °C | COc1cc(C)c2c(=O)c3c(oc2c1OC)C(Br)=CCC3(C)OC (centres unmarked) |  | 

Structure (SMILES) | melting point | extent of the mildew development in % infection of the entire leaf area ([1]; 4 ppm active compound) | extent of the mildew development in % infection of the entire leaf area ([1]; 16 ppm active compound)
COc1cc(C)c2c(=O)c3c(C)c(Cl)ccc3oc2c1OC [I-5, 7-chloro-3,4-dimethoxy-1,8-dimethylxanthen-9-one] | 180 °C | not more than 3% | not more than 3%
